According to patent publication US20130197040A1, “POLYMORPHS OF DALFAMPRIDINE, PREPARATIONS AND USES THEREOF” (priority 2010, published 2013):

Assays:
[1] = Stability on exposure to the air at room temperature for 12 months, purity by HPLC; format: physicochemical; conditions: after exposure to the air at room temperature for 12 months
Protocol: (§1) The polymorphs of 4-aminopyridine or the polymorphs of the solvates thereof according to the present invention were exposed to the air at room temperature for 12 months, and then purities thereof were measured by using high performance liquid chromatography.
as §1, with “The above-mentioned eight” for “The”, “or” for “or the polymorphs”, “chromatography. The obtained purity results thereof were shown as follows:” for “chromatography.”
The purities were measured by using high performance liquid chromatography under the following conditions:
Chromatographic Column: Agilent extend-C18 (250*4.6 mm, 5 μ)
Mobile Phase: 0.01 mol/L of monopotassium phosphate solution containing 0.01 mol/L of sodium octanesulfonate (adjusted to pH 2.6 with phosphoric acid)-methanol (75:25);
Column Temperature: 40° C.;
Detection Wavelength: 264 nm;

[2] = test system: multiple sclerosis patients; conditions: injected in 11 patients with eyesight and motor function impaired because of multiple sclerosis, 1983; cited from earlier work
[3] = test system: multiple sclerosis patients; conditions: clinical trials (Phase III); cited from earlier work

Nc1ccncc1 [Polymorph VIII, 4-aminopyridine]
Purity (%) [1]: 100%

Nc1ccncc1 [Polymorph VII, 4-aminopyridine]
Purity (%) [1]: 100%

Nc1ccncc1 [Polymorph VI, 4-aminopyridine]
Purity (%) [1]: 99.98%

Nc1ccncc1 [Polymorph IV, 4-aminopyridine]
Purity (%) [1]: 100%

Nc1ccncc1 [Polymorph III, 4-aminopyridine]
Purity (%) [1]: 100%

Nc1ccncc1 [dalfampridine, 4-aminopyridine]
eyesight [2]: improved
walking speed [2]: improved
walking speed versus placebo [3]: faster than that in patients who took a placebo

Nc1ccncc1 [Polymorph V, 4-aminopyridine]
Purity (%) [1]: 100%

Nc1ccncc1 [Polymorph II, 4-aminopyridine]
Purity (%) [1]: 100%

Nc1ccncc1 [Polymorph I, 4-aminopyridine]
Purity (%) [1]: 99.66%
